Results on 1 molecule are retold here after PMC6278568, “Discovery of 3-Amino-2-Hydroxypropoxyisoflavone Derivatives as Potential Anti-HCV Agents” (Molecules, 2018).

In data set [1] the test system is Nrf2 / ARE transactivation. The data set is described as follows: ARE transactivation, p3xARE-Luc reporter in Ava-5 cells (luciferase assay). It is filed as cell-based. To be noted: p3xARE-Luc-transfected Ava-5 cells, 1 and 10 μM, 3 days. The source says: Heme oxygenase 1 expression is regulated by the transcription factors Nrf2, Keap1, and Bach1 through the binding of ARE in its promoter region; therefore, we determined whether isoflavones-mediated HO-1 induction was dependent on ARE transactivation by treating p3xARE-Luc-transfected ava-5 cells with increasing concentrations of […] for 3 days.
Ava5 cells were transfected with the HO-1 promoter-driven luciferase plasmid, pHO-1-Luc, using the T-pro^TM transfection reagent (Ji-Feng Biotechnology Co., Ltd., Taipei, Taiwan) according to the manufacturer′s instructions. The transfected cells were treated with compounds at various concentrations for 3 days. Each transfection complex contains 0.1 μg pSEAP, a secreted alkaline phosphatase (SEAP) expression vector, for normalization luciferase activity serving as a transfection control. The luciferase activity assay was performed using the Bright-Glo Luciferase assay system (Promega) (Madison, WI, USA) according to the manufacturer′s instructions.
Figure 6 Isoflavones inhibited HCV replication by upregulating Nrf2 expression. Compound 6b, 6e, 6h and 6i stimulated ARE transactivation in Ava-5 cells. The antioxidant response reporter plasmid, p3xARE-Luc, was transfected into Ava-5 cells and then treated with isoflavones (1 and 10 μM) for 3 days. The relative induction of antioxidant activity was determined by luciferase assay. The activity of untreated Ava-5 cells was considered to be 1.

The subject of a further data set is HCV replication. The data set is described as follows: Anti-HCV activity in Ava-5 HCV subgenomic replicon cells (firefly luciferase assay). It is filed as cell-based, Hepatitis C virus. To be noted: Ava-5 cells. As to the method: Ava-5 cells were treated with compounds 6a–i or the positive ribavirin for three days, and then analyzed through firefly luciferase assay. The concentration that inhibited 50% HCV replication (EC50), the concentration that inhibited 50% cell growth (CC50), and the selectivity index (SI: CC50/EC50) of compounds were determined with ribavirin as a positive control.
(§1) Compounds were dissolved in DMSO at 10 mM and then diluted in culture medium.
(§2) Ava5 cells, an engineered HCV subgenomic replicon cell line, were cultured in Dulbecco′s modified Eagle′s medium (DMEM) with 10% heat-inactivated fetal bovine serum, 1% antibiotic–antimycotic, and 1% non-essential amino acids. Ava5 cells were maintained in DMEM with 1 mg mL^−1 G418 to maintain the stable expression of replicon.
For orientation: In antiviral work, replicon cells carry a viral genome segment that copies itself.

A further data set deals with ava-5 cells. The data set is described as follows: Cytotoxicity in Ava-5 cells (XTT method). In kind it is cell-based. As to the method:
as §1, §2
(§3) For cytotoxicity tests, run in parallel with antiviral assays, plates at an initial density of (5 × 10^3 cells/well) were treated with or without serial dilutions of test compounds. Cell viability was determined after 72 h at 37 °C in a humidified CO2 (5%) atmosphere by the (2,3-bis[2-methyloxy-4-nitro-5-sulfophenyl]-2H-tetrazolium-5-carboxanilide) (XTT) method.
A general note: Tetrazolium dyes change colour on reduction, which living cells bring about.

Data set [2] can be described thus: Cytotoxicity in Ava-5 cells (XTT method). As to conditions: human, Ava5 cells (HCV subgenomic replicon cell line); Ava-5 cells, 72 h, XTT method; read-out: CC50 (concentration causing a 50% growth inhibition of uninfected ava-5 cells). In kind it is cell-based. On the procedure: as §1, §2, §3
In the next data set the test system is HCV RNA. The data set is described as follows: HCV RNA expression in Ava-5 cells by RT-qPCR. In kind it is cell-based, Hepatitis C virus. As to conditions: Ava-5 cells, 2.5, 5, 10 and 20 μM, 3 days, normalized by GAPDH mRNA. As to the method: (§4) To further confirm the anti-HCV effect of compound 6b, we treated compound 6b at indicated concentrations in Ava-5 cells for 3 days. […] Treatment of 0.1% dimethyl sulfoxide (DMSO) served as a mock control on inhibition of HCV replication (Figure 3 and Figure 4).
Figure 3 Inhibition of HCV RNA expression in HCV-infected Ava-5 cells by 6b. Ava-5 cells were treated with 2.5, 5, 10 and 20 μM of 6b for 3 days. Total RNA was extracted and quantified HCV RNA levels by RT-qPCR. HCV RNA expression was normalized by cellular GAPDH mRNA. Treatment with 0.1% DMSO served as a mock control. The results are expressed as the means ± standard deviations (SD) of triplicate experiments.

For data set [3], the system named is HCV protein synthesis (NS5B). The data set is described as follows: HCV protein synthesis in Ava-5 cells by western blotting. It is filed as cell-based, Hepatitis C virus. As to conditions: Ava-5 cells, 2.5, 5, 10 and 20 μM, 3 days. As to the method:
as §4
Ava5 cells were seeded in 24-well plates at a density of 5 × 10^4 cells per well overnight and treated with indicated reagent at proper concentrations for 3 days. Cells were washed with cold phosphate buffer saline (PBS) and lysed by radioimmunoprecipitation assay (RIPA) lysis buffer (50 mM Tris-HCl, pH 7.5, 150 mM NaCl, 1% Nonidet P-40, 2 mM EDTA, 1 mM EGTA, 1 mM NaVO3, 10 mM NaF, 1 mM DTT, 1 mM PMSF, 25 μg/mL aprotinin, and 25 μg/mL leupeptin) and stored at −20 °C. The protein concentration was determined by the Bradford method. Ten μg protein were separated by 10% SDS-PAGE and transferred onto a polyvinylidene difluorid (PVDF) membrane. The membrane was blocked with 5% non-fat dried milk and incubated with specific antibodies against NS5B (1:5000; Abcam Cambridge, MA, USA), glyceraldehyde-3-phosphate dehydrogenase (GAPDH) and anti-HO-1 (1:3000, Abcam Cambridge, MA, USA). Antibodies were diluted in 5% milk containing Tris-buffered saline (TBS) and 0.5% Tween. The blotting signal was developed using an ECL detection kit (PerkinElmer, Norwalk, CT, USA) and was counted by the software Quantity One (Bio-Rad, Foster, CA, USA). […]
For orientation: Immunoblotting shows a protein as a band on a membrane.

For another data set, the system named is HO-1 protein expression. Nature of the data set: HO-1 protein expression in Ava-5 cells by western blotting. In kind it is cell-based. To be noted: 10 μM, 3 days, compared with DMSO-treated cells. On the procedure:
To determine whether compounds 6b, 6e, 6h and 6i have impact on HO-1 protein expression in Ava-5 cells, we treated these compounds at 10 μM in Ava5 cells.
Ava5 cells were seeded in 24-well plates at a density of 5 × 10^4 cells per well overnight and treated with indicated reagent at proper concentrations for 3 days. Cells were washed with cold phosphate buffer saline (PBS) and lysed by radioimmunoprecipitation assay (RIPA) lysis buffer (50 mM Tris-HCl, pH 7.5, 150 mM NaCl, 1% Nonidet P-40, 2 mM EDTA, 1 mM EGTA, 1 mM NaVO3, 10 mM NaF, 1 mM DTT, 1 mM PMSF, 25 μg/mL aprotinin, and 25 μg/mL leupeptin) and stored at −20 °C. The protein concentration was determined by the Bradford method. Ten μg protein were separated by 10% SDS-PAGE and transferred onto a polyvinylidene difluorid (PVDF) membrane. The membrane was blocked with 5% non-fat dried milk and incubated with specific antibodies against NS5B (1:5000; Abcam Cambridge, MA, USA), glyceraldehyde-3-phosphate dehydrogenase (GAPDH) and anti-HO-1 (1:3000, Abcam Cambridge, MA, USA). Antibodies were diluted in 5% milk containing Tris-buffered saline (TBS) and 0.5% Tween. The blotting signal was developed using an ECL detection kit (PerkinElmer, Norwalk, CT, USA) and was counted by the software Quantity One (Bio-Rad, Foster, CA, USA).
Compound 6b, 6e, 6h and 6i induced HO-1 protein expression. Ava-5 cells were treated with compounds at 10 μM for 3 days. The cell lysate was subjected to western blotting with anti-HO-1 and anti-GAPDH antibodies.

Entries after “also recorded” stand apart in the source; their conditions may differ.

A word on the melting point: it is the temperature of the solid-liquid transition. Take `COc1ccc(CCNCC(O)COc2ccc3c(=O)c(-c4ccc(OC)c(OC)c4)coc3c2)cc1OC` (stereo not drawn) [Compound 6b, 7-{3-[(3,4-Dimethoxyphenethyl)amino]-2-hydroxypropoxy}-3-(3,4-dimethoxyphenyl)-4H-chromen-4-one]: the melting point lay within 134 to 135 °C. Besides, the ARE-mediated luciferase activity entry in data set [1] is listed as “increased ARE-mediated luciferase activity”. Further, the “anti-HCV activity compared with ribavirin (in words)” value in the data set with HCV replication (three days) was “more active than ribavirin”. Also, in the data set on HCV replication (CC50/EC50), the “SI (selectivity index, CC50/EC50)” value was found to be 21.08. Moreover, in the data set on HCV replication (Hepatitis C virus, Ava5, 72 h, treated for three days, firefly luciferase assay, read-out: EC50 (concentration resulting in a 50% inhibition in virus production / HCV replication)), the EC50 stood at 6.53 ± 0.57 µM. The “anti-HCV activity relative to ribavirin” value in the data set on HCV replication (ratio of EC50 values) is “approximately 2 fold”. Moreover, the “cell cytotoxicity at the antiviral test concentrations” value in the data set on ava-5 cells (Ava5 cells, 2.5-20 μM, 3 days) is “without cell cytotoxicity”. For the same molecule, in the data set with ava-5 cells (Ava-5 cells), the “cytotoxicity compared with ribavirin (in words)” value is given as “less cytotoxic than ribavirin”. Moreover, in data set [2], the CC50 at 72 h is 138 ± 6.91 µM. Besides, in the data set on HCV RNA, the “HCV RNA replication / expression” value was “dose-dependently reduced; also recorded: inhibit the HCV RNA expression in Ava5 cells in a dose-dependent manner”. In data set [3], the HCV protein synthesis entry was “dose-dependently reduced”. The HO-1 protein level entry with HO-1 protein expression is “could induce HO-1 protein level”.
